In brackets after ≈: the same amount, converted by molar mass.
Experiments:
Haemophilus influenzae [1] = assay: Antimicrobial activity against Haemophilus influenzae A1950 by NCCLS method; assay type: functional
Haemophilus influenzae [2] = assay: Antimicrobial activity against Haemophilus influenzae parent strain RD1 by NCCLS method; assay type: functional
Enterococcus faecalis [3] = assay: Antimicrobial activity against Linezolid-resistant Enterococcus faecalis ATCC 29212-P5 by NCCLS method; assay type: functional
Streptococcus pneumoniae [4] = assay: Antimicrobial activity against erm (B) expressing Streptococcus pneumoniae 02J1258 + L4 by NCCLS method; assay type: functional
Staphylococcus aureus = assay: Antimicrobial activity against methicillin-resistant Staphylococcus aureus 67-0 by NCCLS method; assay type: functional
Streptococcus pyogenes [5] = assay: Antimicrobial activity against erm (B) Streptococcus pyogenes msr610 by NCCLS method; assay type: functional
Enterococcus faecium = assay: Antimicrobial activity against vanA+ expressing Enterococcus faecium A6349 by NCCLS method
Enterococcus faecalis [6] = assay: Antimicrobial activity against vanB+ expressing Enterococcus faecalis 1069 by NCCLS method; assay type: functional
Haemophilus influenzae [7] = assay: Antimicrobial activity against Haemophilus influenzae 1100 by NCCLS method; assay type: functional
Haemophilus influenzae [8] = assay: Antimicrobial activity against Haemophilus influenzae by NCCLS method; assay type: functional
Streptococcus pneumoniae [9] = assay: Antimicrobial activity against mef (A) expressing Streptococcus pneumoniae 02J1175 by NCCLS method; assay type: functional
Haemophilus influenzae [10] = assay: Antimicrobial activity against Haemophilus influenzae 895 (AcrB-KO) by NCCLS method; assay type: functional
Escherichia coli = assay: Inhibition of Escherichia coli translation; assay type: functional, organism-based
Enterococcus faecalis [11] = assay: Antimicrobial activity against Linezolid-resistant Enterococcus faecalis P5 by NCCLS method; assay type: functional
Streptococcus pyogenes [12] = assay: Antimicrobial activity against erm (B) expressing Streptococcus pyogenes Msr 610 by NCCLS method; assay type: functional

Structure (SMILES)	MIC (Haemophilus influenzae [1])	MIC (Haemophilus influenzae [2])	MIC (Enterococcus faecalis [3])	MIC (Streptococcus pneumoniae [4])	MIC (Staphylococcus aureus)	MIC (Streptococcus pyogenes [5])	MIC (Enterococcus faecium)	MIC (Enterococcus faecalis [6])	MIC (Haemophilus influenzae [7])	MIC (Haemophilus influenzae [8])	MIC (Streptococcus pneumoniae [9])	MIC (Haemophilus influenzae [10])	IC50 (Escherichia coli)	MIC (Enterococcus faecalis [11])	MIC (Streptococcus pyogenes [12])
CC(=O)NC[C@H]1CN(c2ccc(-c3ccc(Cn4ncnn4)cc3)c(F)c2)C(=O)O1	8 µg/mL (≈ 19.5 µM)	4 µg/mL (≈ 9.75 µM)	1 µg/mL (≈ 2.44 µM)	0.25 µg/mL	0.5 µg/mL (≈ 1.22 µM)	0.125 µg/mL (≈ 0.305 µM)	0.5 µg/mL (≈ 1.22 µM)	≤ 0.25 µg/mL	4 µg/mL (≈ 9.75 µM)	8 µg/mL (≈ 19.5 µM)	0.125 µg/mL (≈ 0.305 µM)	–	–	–	–
CC(=O)NC[C@H]1CN(c2ccc(-c3ccc(CNCc4cnoc4)cc3)c(F)c2)C(=O)O1	8 µg/mL (≈ 18.2 µM)	2 µg/mL (≈ 4.56 µM)	2 µg/mL (≈ 4.56 µM)	0.125 µg/mL	–	0.125 µg/mL (≈ 0.285 µM)	1 µg/mL (≈ 2.28 µM)	0.5 µg/mL (≈ 1.14 µM)	1 µg/mL (≈ 2.28 µM)	4 µg/mL (≈ 9.12 µM)	0.125 µg/mL (≈ 0.285 µM)	–	–	–	–
CC(=O)NC[C@H]1CN(c2ccc(-c3ccc(CNCCCF)cc3)c(F)c2)C(=O)O1	4 µg/mL (≈ 9.58 µM)	2 µg/mL (≈ 4.79 µM)	2 µg/mL (≈ 4.79 µM)	0.125 µg/mL	1 µg/mL (≈ 2.4 µM)	0.125 µg/mL (≈ 0.299 µM)	1 µg/mL (≈ 2.4 µM)	0.5 µg/mL (≈ 1.2 µM)	2 µg/mL (≈ 4.79 µM)	4 µg/mL (≈ 9.58 µM)	0.125 µg/mL (≈ 0.299 µM)	–	–	–	–
CC(=O)NC[C@H]1CN(c2ccc(-c3ccc(CNCc4ccco4)cc3)c(F)c2)C(=O)O1	–	4 µg/mL (≈ 9.14 µM)	–	–	–	–	–	–	–	–	0.25 µg/mL (≈ 0.571 µM)	0.5 µg/mL (≈ 1.14 µM)	40 nM	4 µg/mL (≈ 9.14 µM)	0.25 µg/mL (≈ 0.571 µM)
CC(=O)NC[C@H]1CN(c2ccc(N3CCOCC3)c(F)c2)C(=O)O1 [LINEZOLID]	32 µg/mL (≈ 94.9 µM)	16 µg/mL (≈ 47.4 µM)	32 µg/mL (≈ 94.9 µM)	–	–	1 µg/mL (≈ 2.96 µM)	–	–	16 µg/mL (≈ 47.4 µM)	32 µg/mL (≈ 94.9 µM)	–	8 µg/mL (≈ 23.7 µM)	4600 nM	32 µg/mL (≈ 94.9 µM)	1 µg/mL (≈ 2.96 µM)
CC(=O)NC[C@H]1CN(c2ccc(-c3ccc(CNCc4ccncc4)cc3)c(F)c2)C(=O)O1	–	8 µg/mL (≈ 17.8 µM)	–	–	–	–	–	–	–	–	0.25 µg/mL (≈ 0.557 µM)	0.5 µg/mL (≈ 1.11 µM)	50 nM	2 µg/mL (≈ 4.46 µM)	0.5 µg/mL (≈ 1.11 µM)
CC(=O)NC[C@H]1CN(c2ccc(-c3ccc(CNCc4cnn[nH]4)cc3)c(F)c2)C(=O)O1 [RADEZOLID]	1 µg/mL (≈ 2.28 µM)	0.5 µg/mL (≈ 1.14 µM)	1 µg/mL (≈ 2.28 µM)	0.25 µg/mL	1 µg/mL (≈ 2.28 µM)	0.125 µg/mL (≈ 0.285 µM)	0.5 µg/mL (≈ 1.14 µM)	≤ 0.25 µg/mL	0.25 µg/mL (≈ 0.57 µM)	1 µg/mL (≈ 2.28 µM)	0.25 µg/mL (≈ 0.57 µM)	–	–	–	–
CC(=O)NC[C@H]1CN(c2ccc(-c3ccc(Cn4cnnn4)cc3)c(F)c2)C(=O)O1	8 µg/mL (≈ 19.5 µM)	2 µg/mL (≈ 4.87 µM)	1 µg/mL (≈ 2.44 µM)	0.5 µg/mL	1 µg/mL (≈ 2.44 µM)	0.5 µg/mL (≈ 1.22 µM)	1 µg/mL (≈ 2.44 µM)	0.5 µg/mL (≈ 1.22 µM)	2 µg/mL (≈ 4.87 µM)	4 µg/mL (≈ 9.75 µM)	0.25 µg/mL (≈ 0.609 µM)	–	–	–	–
CC(=O)NC[C@H]1CN(c2ccc(-c3ccc(CNCc4ccnc5ccccc45)cc3)c(F)c2)C(=O)O1	–	8 µg/mL (≈ 16 µM)	–	–	–	–	–	–	–	–	0.5 µg/mL (≈ 1 µM)	1 µg/mL (≈ 2.01 µM)	< 20 nM	2 µg/mL (≈ 4.01 µM)	0.5 µg/mL (≈ 1 µM)
CC(=O)NC[C@H]1CN(c2ccc(-c3ccc(CNCC#N)cc3)c(F)c2)C(=O)O1	8 µg/mL (≈ 20.2 µM)	4 µg/mL (≈ 10.1 µM)	1 µg/mL (≈ 2.52 µM)	0.25 µg/mL	0.5 µg/mL (≈ 1.26 µM)	0.25 µg/mL (≈ 0.631 µM)	1 µg/mL (≈ 2.52 µM)	≤ 0.25 µg/mL	4 µg/mL (≈ 10.1 µM)	8 µg/mL (≈ 20.2 µM)	0.25 µg/mL (≈ 0.631 µM)	–	–	–	–
CC(=O)NC[C@H]1CN(c2ccc(-c3ccc(Cn4ccnn4)cc3)c(F)c2)C(=O)O1	8 µg/mL (≈ 19.5 µM)	4 µg/mL (≈ 9.77 µM)	1 µg/mL (≈ 2.44 µM)	0.25 µg/mL	0.5 µg/mL (≈ 1.22 µM)	0.5 µg/mL (≈ 1.22 µM)	1 µg/mL (≈ 2.44 µM)	0.5 µg/mL (≈ 1.22 µM)	2 µg/mL (≈ 4.88 µM)	4 µg/mL (≈ 9.77 µM)	0.5 µg/mL (≈ 1.22 µM)	–	–	–	–

— ChEMBL document CHEMBL1152147, “Design at the atomic level: design of biaryloxazolidinones as potent orally active antibiotics” (Bioorg Med Chem Lett, 2008)
